In PubChem BioAssay AID2060909 (Molecular Pharmacology Branch, DTP, NCI, 2025):
Blank lines part the entries; values can stand above or below the compound they belong to.

Test system: 362531-283-R-J2-PDC complex spheroid viability
Assay: Anticancer human tumor 362531-283-R-J2-PDC patient-derived colon adenocarcinoma cell line growth inhibition [RAS]
Settings: for IC50: curve of first compound; for viability, T/C: stronger effect = lower value
Method in brief: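 Multi-cell-type spheroids: tumor cells plus HUVEC endothelial cells and mesenchymal stem cells. RAS-pathway inhibitors were combined with targeted agents, each dosed in half-log steps down from clinical Cmax, or from 10 microM when Cmax was unknown.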

[1] = second compound 0.0316 µM, first compound 0.0316 µM
[2] = second compound 0.0316 µM, first compound 0.1 µM
[3] = second compound 0.0316 µM, first compound 0.316 µM
[4] = second compound 0.0316 µM, first compound 1 µM
[5] = second compound 0.0316 µM, first compound 3.16 µM
[6] = second compound 0.0316 µM, first compound 10 µM
[7] = second compound 0.1 µM, first compound 0.0316 µM
[8] = second compound 0.1 µM, first compound 0.1 µM
[9] = second compound 0.1 µM, first compound 0.316 µM
[10] = second compound 0.1 µM, first compound 1 µM
[11] = second compound 0.1 µM, first compound 3.16 µM
[12] = second compound 0.1 µM, first compound 10 µM
[13] = second compound 0.316 µM, first compound 0.0316 µM
[14] = second compound 0.316 µM, first compound 0.1 µM
[15] = second compound 0.316 µM, first compound 0.316 µM
[16] = second compound 0.316 µM, first compound 1 µM
[17] = second compound 0.316 µM, first compound 3.16 µM
[18] = second compound 0.316 µM, first compound 10 µM
[19] = second compound 1 µM, first compound 0.0316 µM
[20] = second compound 1 µM, first compound 0.1 µM
[21] = second compound 1 µM, first compound 0.316 µM
[22] = second compound 1 µM, first compound 1 µM
[23] = second compound 1 µM, first compound 3.16 µM
[24] = second compound 1 µM, first compound 10 µM
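Also: spheroids exposed to the agents for 7 days before readout.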
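For viability, T/C in this document: luminescence viability as percent of DMSO vehicle control wells.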

IC50 (second compound 0.0316 µM): 5.18 µM
IC50 (second compound 0.1 µM): 1.65 µM
IC50 (second compound 0.316 µM): 0.883 µM
IC50 (second compound 1 µM): 0.482 µM
IC50 (second compound 3.16 µM): 0.156 µM
IC50 (second compound 10 µM): < 0.0316 µM
SMILES: Cc1nc(N2CCC3(CC2)COC(C)C3N)c(CO)nc1Sc1ccnc(N)c1Cl (centres undefined) + C#Cc1c(F)ccc2cc(O)cc(-c3ncc4c(N5CC6CCC(C5)N6)nc(OCC56CCCN5CC(F)C6)nc4c3F)c12
viability, T/C [1]: 104%
viability, T/C [2]: 107%
viability, T/C [3]: 94.8%
viability, T/C [4]: 88.9%
viability, T/C [5]: 76.1%
viability, T/C [6]: 19.1%
viability, T/C [7]: 104%
viability, T/C [8]: 102%
viability, T/C [9]: 92.3%
viability, T/C [10]: 69.5%
viability, T/C [11]: 25.7%
viability, T/C [12]: 4.47%
viability, T/C [13]: 99.9%
viability, T/C [14]: 93.3%
viability, T/C [15]: 79.2%
viability, T/C [16]: 49.8%
viability, T/C [17]: 7.28%
viability, T/C [18]: 4.45%
viability, T/C [19]: 81%
viability, T/C [20]: 81.5%
viability, T/C [21]: 69.5%
viability, T/C [22]: 16.2%
viability, T/C [23]: 7.77%
viability, T/C [24]: 4.16%
viability, T/C (second compound 3.16 µM, first compound 0.0316 µM): 81%
viability, T/C (second compound 3.16 µM, first compound 0.1 µM): 59.2%
viability, T/C (second compound 3.16 µM, first compound 0.316 µM): 35.6%
viability, T/C (second compound 3.16 µM, first compound 1 µM): 11%
viability, T/C (second compound 3.16 µM, first compound 3.16 µM): 9.29%
viability, T/C (second compound 3.16 µM, first compound 10 µM): 6.04%
viability, T/C (second compound 10 µM, first compound 0.0316 µM): 38%
viability, T/C (second compound 10 µM, first compound 0.1 µM): 22.6%
viability, T/C (second compound 10 µM, first compound 0.316 µM): 14.1%
viability, T/C (second compound 10 µM, first compound 1 µM): 13.3%
viability, T/C (second compound 10 µM, first compound 3.16 µM): 8.12%
viability, T/C (second compound 10 µM, first compound 10 µM): 3.97%

IC50 (second compound 0.00316 µM): 3.84 µM
IC50 (second compound 0.01 µM): 5.87 µM
IC50 (second compound 0.0316 µM): 4.67 µM
IC50 (second compound 0.1 µM): 6.19 µM
IC50 (second compound 0.316 µM): 7.66 µM
IC50 (second compound 1 µM): 8.02 µM
SMILES: NC1c2ccccc2OC12CCN(c1cnc3c(N4CCCc5ncccc54)n[nH]c3n1)CC2 (centres undefined) + C=CC(=O)N1CCN(c2nc(OCC3CCCN3C)nc3c(F)c(-c4nc(N)cc(C)c4C(F)(F)F)c(Cl)cc23)C(C)C1
viability, T/C (second compound 0.00316 µM, first compound 0.0316 µM): 102%
viability, T/C (second compound 0.00316 µM, first compound 0.1 µM): 76.8%
viability, T/C (second compound 0.00316 µM, first compound 0.316 µM): 83.8%
viability, T/C (second compound 0.00316 µM, first compound 1 µM): 60%
viability, T/C (second compound 0.00316 µM, first compound 3.16 µM): 56.2%
viability, T/C (second compound 0.00316 µM, first compound 10 µM): 37.9%
viability, T/C (second compound 0.01 µM, first compound 0.0316 µM): 92.1%
viability, T/C (second compound 0.01 µM, first compound 0.1 µM): 82.2%
viability, T/C (second compound 0.01 µM, first compound 0.316 µM): 75.1%
viability, T/C (second compound 0.01 µM, first compound 1 µM): 72.5%
viability, T/C (second compound 0.01 µM, first compound 3.16 µM): 57.8%
viability, T/C (second compound 0.01 µM, first compound 10 µM): 42.3%
viability, T/C [1]: 89.4%
viability, T/C [2]: 86.7%
viability, T/C [3]: 73.3%
viability, T/C [4]: 66.6%
viability, T/C [5]: 58.3%
viability, T/C [6]: 38.4%
viability, T/C [7]: 93%
viability, T/C [8]: 83.6%
viability, T/C [9]: 79.2%
viability, T/C [10]: 64%
viability, T/C [11]: 61.9%
viability, T/C [12]: 43%
viability, T/C [13]: 94.4%
viability, T/C [14]: 91.6%
viability, T/C [15]: 78.4%
viability, T/C [16]: 68.9%
viability, T/C [17]: 65.7%
viability, T/C [18]: 44.5%
viability, T/C [19]: 91%
viability, T/C [20]: 79.2%
viability, T/C [21]: 74.7%
viability, T/C [22]: 70%
viability, T/C [23]: 61.9%
viability, T/C [24]: 45.7%
